Measurements taken from PMC9929232, “On-demand male contraception via acute inhibition of soluble adenylyl cyclase” (Nature Communications, 2023).
“And” between values parts separate entries of the source, which are not always exact repeats. Equal values may be shown once.

Tests used:
epididymal mouse sperm [1] = experiment: Ex vivo motility (CASA) of epididymal sperm from inhibitor-treated male mice; format: in vivo
Method: Sperm movements of 10 fields of at least 200 sperm were examined using computer-assisted sperm analysis (CASA) via Hamilton–Thorne digital image analyzer (IVOS II, Hamilton Thorne Research, Beverly, MA) with the following parameters: 30 frames, frame rate: 60 Hz, cell size: 30–170 μm^2. Ejaculated uterine mouse sperm were recorded without additional dilution. Sperm were considered motile when presenting STR ≥80% and VAP ≥50 μm/s and hyperactivated when presenting VCL ≥270 μm/s, LIN < 50%, and ALH ≥7 μm. Track´s color code: motile (green), progressive (turquoise), hyperactivated (purple), slow (pink), static (red), not counted due to late entry (yellow).

human sperm = experiment: Acrosome reaction assay, human sperm, progesterone-evoked; format: cell-based; conditions: Fig. 2h replicates, 5 μM TDI-10229 or 10 nM TDI-11861
Method: Acrosome reaction was induced by incubating mouse sperm with 50 mouse solubilized zonae pellucidae for 15 min at 37 °C. Human sperm were incubated with 10 μM progesterone for 30 min at 37 °C. […] Samples were air-dried on microscope slides and fixed for 30 minutes in 100% ethanol at room temperature (RT). For acrosome staining, mouse and human sperm were incubated for 30 min in the dark with 5 μg/ml PNA-FITC or 5 μg/ml PSA-FITC, respectively, and counterstained with 2 μg/ml DAPI. After curing, slides were analyzed using a Zeiss LSM 880 Laser Scanning Confocal Microscope; images were captured with two photomultiplier and one Gallium Arsenide Phosphide detector using ZEN Imaging software. For each condition, at least 600 cells were analyzed using ImageJ 1.52.

epididymal mouse sperm [2] = experiment: Ex vivo cAMP generation in epididymal sperm from inhibitor-treated male mice (oral or i.p.)
Method: (§1) For capacitation, sperm were incubated for 90 min in TYH containing 3 mg/ml BSA and 25 mM NaHCO3 in a 37 °C incubator. To control for the consequences of dilution during isolation of epididymal mouse sperm for ex vivo assays, we assessed the ability of bicarbonate to induce a prototypical pattern of tyrosine phosphorylation (pY) which is a widely used molecular hallmark of capacitation[53]. […] For experiments studying sperm from injected mice, ‘swim out’ was performed in 200 μl TYH, which corresponded to a 1:10 dilution from epididymis (20 μg cauda in 200 μl buffer). Capacitation-induced changes were assessed by adding 50 µl of ‘swim out’ sperm to increasing volumes of capacitating TYH buffer.
Intracellular cAMP levels were quantified using the Direct cAMP ELISA kit (Enzo) as above.

[3] = biological target: T1, purified recombinant human sAC protein (Homo sapiens, UniProt Q96PN6); experiment: In vitro adenylyl cyclase activity assay (two-column method);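 on cyclase activity (%): 100% equals DMSO vehicle-treated control activity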; format: biochemical; conditions: for cyclase activity (%): Fig. 1c normalized replicates; for cyclase activity: Fig. 1c replicates
T1 construct: human sACt protein was incubated
T1 sequence (Q96PN6 1-469 limits assumed): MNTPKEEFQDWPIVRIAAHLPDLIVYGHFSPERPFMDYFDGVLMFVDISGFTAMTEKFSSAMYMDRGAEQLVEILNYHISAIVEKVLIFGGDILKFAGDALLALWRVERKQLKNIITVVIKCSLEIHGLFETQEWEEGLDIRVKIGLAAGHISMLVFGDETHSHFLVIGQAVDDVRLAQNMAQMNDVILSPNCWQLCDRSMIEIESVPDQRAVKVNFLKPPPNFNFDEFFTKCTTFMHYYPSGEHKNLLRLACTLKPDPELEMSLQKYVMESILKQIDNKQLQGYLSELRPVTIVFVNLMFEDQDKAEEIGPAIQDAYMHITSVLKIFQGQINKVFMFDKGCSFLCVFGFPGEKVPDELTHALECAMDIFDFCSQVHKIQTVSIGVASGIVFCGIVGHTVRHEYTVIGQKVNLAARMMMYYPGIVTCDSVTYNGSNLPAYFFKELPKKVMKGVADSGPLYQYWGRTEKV
Method: All in vitro adenylyl cyclase activity assays were performed via the “two-column” method measuring the conversion of [α-^32P] ATP into [^32P] cAMP[54], as previously described. Briefly, human sACt protein was incubated in buffer containing 50 mM Tris-HCl, pH 7.5, 4 mM MgCl2, 2 mM CaCl2, 1 mM ATP, 3 mM DTT, 40 mM NaHCO3 in the presence of the indicated concentrations of different sAC inhibitors or vehicle (1% DMSO).

epididymal mouse sperm [4] = experiment: Tyrosine phosphorylation (pY) Western blot of sperm from injected mice; conditions: for capacitation-induced pY pattern: 50 mg/kg i.p., 1 hour
Method: as §1
Mouse sperm from vehicle- or inhibitor-injected mice were isolated 1 hour post injection from male mice injected (i.p.) with 150 µl of solution containing sAC inhibitor or vehicle. ‘Swim out’ sperm were diluted 1:1 to 1:100 in capacitating TYH media. As control, sperm from vehicle-injected mice were diluted 1:100 in non-capacitating and capacitating TYH buffer. The samples were incubated for 90 min, washed with 1 ml PBS and sedimented by centrifugation at 2000 × g for 3 min. The sedimented sperm were resuspended in 15 μl 2× Laemmli sample buffer, heated for 5 min at 95 °C, supplemented with 8 µl β-mercaptoethanol and heated again for 5 min at 95 °C. For Western blot analysis, proteins were transferred onto PVDF membranes (Thermo Scientific), probed with anti-phosphotyrosine (1:1000, clone 4G10, Merck Millipore) and anti-mouse IgG (1:10,000, Cell Signaling Technology) antibodies, and analyzed using a chemiluminescence detection system. Image lab (Bio-Rad) was used for densitometric analysis of western blots.

mouse sperm [5] = experiment: Flagellar beat frequency of tethered mouse sperm; format: cell-based
Method: An inverted dark-field video microscope (IX73; Olympus) with a 10 x objective (mouse sperm) or a 20 x objective (human sperm) (UPLSAPO, NA 0.8; Olympus) was combined with a high-speed camera (ORCA Fusion; Hamamatsu). Dark-field videos were recorded with a frame rate of 200 Hz. The temperature of the heated stage was set to 37 °C (stage top incubator WSKMX; TOKAI HIT). The images were preprocessed with the ImageJ plugin SpermQ Preparator (Gaussian blur with sigma 0.5 px; subtract background method with radius 5 px) and analyzed using the ImageJ plugin SpermQ[57]. The beat frequency was determined from the highest peak in the frequency spectrum of the curvature time course, obtained by Fast Fourier Transform.

mouse sperm [6] = experiment: cAMP generation in mouse sperm in vitro, incl. wash-out by dilution; conditions: 12 minutes
Method: For capacitation, sperm were incubated for 90 min in TYH containing 3 mg/ml BSA and 25 mM NaHCO3 in a 37 °C incubator. To control for the consequences of dilution during isolation of epididymal mouse sperm for ex vivo assays, we assessed the ability of bicarbonate to induce a prototypical pattern of tyrosine phosphorylation (pY) which is a widely used molecular hallmark of capacitation[53]. Bicarbonate-induced pY is known to be sAC dependent in vitro[20],[22],[35]. For experiments studying sperm from injected mice, ‘swim out’ was performed in 200 μl TYH, which corresponded to a 1:10 dilution from epididymis (20 μg cauda in 200 μl buffer). Capacitation-induced changes were assessed by adding 50 µl of ‘swim out’ sperm to increasing volumes of capacitating TYH buffer.
cAMP generation was measured in mouse and human sperm. […] For human sperm, aliquots of 2 × 10^6 cells were incubated for 30 min in the presence or absence of sAC inhibitor in non-capacitating or capacitating HTF buffer. In both cases, 0.1% DMSO was used as vehicle control.
After 5 min, 150 µl of sperm/inhibitor mix was diluted into 1.35 ml non-capacitating or capacitating media with no inhibitor. […] Sperm lysates were centrifuged at 2000 × g for 3 min and the cAMP in the supernatant was acetylated and quantified using the Direct cAMP ELISA kit (Enzo).

[7] = concentration (uM) -0.52288 [sic]
[8] = concentration (uM) -1.95424 [sic]
[9] = concentration (uM) -2.43136 [sic]
[10] = concentration (uM) -2.90848 [sic]
[11] = concentration (uM) -3.38561 [sic]
[12] = concentration (uM) printed 0.477121
[13] = concentration (uM) printed -1.47712
[14] = sheet Fig. 2a replicates, 5 μM TDI-10229 or 10 nM TDI-11861 present
[15] = sheet Fig. 2b replicates, 5 min preincubation in 5 μM TDI-10229 or 10 nM TDI-11861, diluted 1:100 into inhibitor-free media

Cc1c(Cc2ccccc2)c(-c2cc(Cl)nc(N)n2)nn1C [TDI-10229, reference compound]
motility of epididymal sperm diluted ex vivo (epididymal mouse sperm [1]; 50 mg/kg oral): motile and indistinguishable from sperm from vehicle-treated mice
motility (%) (epididymal mouse sperm [1]; Fig. 3b replicates, 50 mg/kg oral gavage, 1 hour, diluted 1:100 in inhibitor-free non-capacitating media, CASA, 50 mg/kg): 34.7% and 36.8% and 35.1% and 36.4% and 29.7% and 32.4% and 30.6% and 26% and 32% and 33.4% and 29.4%
motility (%) (epididymal mouse sperm [1]; Fig. 3d, individual replicates): 19.9% and 28.3% and 25% and 29.5% and 30.2% and 35.4% and 40.7% and 41.4% and 42.3%
Acrosome reacted (%), Prog (human sperm; 10 μM progesterone): 8% and 18.1667% and 7.5% and 9% and 9.5% and 17.6667% and 10%
Acrosome reacted (%), Prog + db-cAMP/IBMX (human sperm; 10 μM progesterone, 5 mM db-cAMP/500 μM IBMX): 23% and 28.6636% and 15.5% and 15% and 16% and 30.6613% and 17.1667%
Acrosome reacted (%), basal + db-cAMP/IBMX (human sperm; 5 mM db-cAMP/500 μM IBMX): 8.5% and 15.8333% and 7.5% and 6.5% and 7% and 21.8333% and 11.3333%
Acrosome reacted (%), basal (human sperm; 180 min capacitating media): 6% and 15.1667% and 8% and 7% and 7.5% and 16.3548% and 6.667%
bicarbonate-induced cAMP response, sperm directly isolated (epididymal mouse sperm [2]; 50 mg/kg i.p.): prevented bicarbonate-induced increase in cAMP
bicarbonate-induced cAMP response, sperm measured directly (epididymal mouse sperm [2]; 50 mg/kg oral, 1 hour, cauda sperm): no bicarbonate-induced increase in cAMP
normalized cAMP, diluted (epididymal mouse sperm [2]; Fig. 3a replicates, 50 mg/kg oral gavage, 100-fold dilution into inhibitor-free media, capacitating relative to non-capacitated, 50 mg/kg): 2.085 and 1.745 and 2.432 and 2.093 and 1.3062 and 3.591 and 2.931 and 3.583
normalized cAMP, non-diluted (epididymal mouse sperm [2]; Fig. 3a replicates, 50 mg/kg oral gavage, capacitating relative to non-capacitated sperm of same mouse, 12 minutes, 50 mg/kg): 1.449 and 1.743 and 0.3 and 0.7791 and 0.9239 and 0.4534 and 0.1485 and 0.05415
normalize cAMP, diluted (epididymal mouse sperm [2]; Fig. 3c replicates, 50 mg/kg i.p., 100-fold dilution into inhibitor-free media, capacitating relative to non-capacitated, 50 mg/kg): 1.94 and 1.936 and 3.937 and 2.155 and 1.983 and 3.104 and 1.124 and 4 and 3.176 and 2.922 and 1.239
normalize cAMP, non-diluted (epididymal mouse sperm [2]; Fig. 3c replicates, 50 mg/kg i.p., capacitating relative to non-capacitated sperm of same mouse, 12 minutes, 50 mg/kg): 0.2801 and 0.5834 and 0.6474 and 0.2247 and 1.279 and 0.9423 and 1.0897 and 0.542 and 0.3506 and 1.1072 and 1.1267
cyclase activity (%) ([3]; concentration (uM) 0): 9.237% and 13.938% and 16.2416% and 14.0981% and 17.1651% and 16.2955%
cyclase activity (%) [3, 7]: 31.1405% and 32.9975% and 35.8708% and 34.2006% and 36.7402% and 35.3317%
cyclase activity (%) ([3]; concentration (uM) -1 [sic]): 63.6617% and 56.9124% and 60.5839% and 60.8807% and 64.5679% and 61.7683%
cyclase activity (%) [3, 8]: 97.3105% and 99.8737% and 91.8341% and 99.076% and 99.9562% and 83.5123%
cyclase activity (%) [3, 9]: 102.738% and 99.4561% and 103.778% and 98.5001% and 102.473% and 98.7264%
cyclase activity (%) [3, 10]: 99.2726% and 96.965% and 102.643% and 103.079% and 106.167% and 104.578%
cyclase activity (%) [3, 11]: 100%
cyclase activity (%) [3, 12]: 2.892% and 2.778% and 4.319% and 3.785% and 3.6574% and 3.195%
cyclase activity (%) ([3]; concentration (uM) printed 1): 0%
cyclase activity (%) [3, 13]: 87.3934% and 85.1243% and 83.28% and 86.7752% and 79.7419% and 79.6259%
cyclase activity ([3]; concentration (uM) 0): 4537 and 5556.7 and 5828.8 and 5224.3 and 5509.4 and 5355.1
cyclase activity [3, 7]: 10764.2 and 10900.3 and 11166.7 and 10456.8 and 10112.3 and 9643.4
cyclase activity ([3]; concentration (uM) -1 [sic]): 20009.8 and 17605.2 and 17887.1 and 17401.4 and 16655.7 and 15598.8
cyclase activity [3, 8]: 29576 and 29650 and 26385.2 and 27343.3 and 24976.9 and 20497.1
cyclase activity [3, 9]: 31119 and 29532.9 and 29633.3 and 27193.4 and 25568.8 and 23924.4
cyclase activity [3, 10]: 30133.8 and 28834.5 and 29324.4 and 28385.2 and 26437.3 and 25242.7
cyclase activity [3, 11]: 30340.6 and 29685.4 and 28605.8 and 27583.8 and 24987.2 and 24211.3
cyclase activity [3, 12]: 2733.4 and 2427.8 and 2586.5 and 2539.8 and 2333.2 and 2403.9
cyclase activity ([3]; concentration (uM) printed 1): 1911.1 and 1649 and 1412.1 and 1554.7 and 1473.2 and 1684.2
cyclase activity [3, 13]: 26756.6 and 25514.8 and 24059 and 24141.5 and 20223.7 and 19621.6
capacitation-induced pY pattern (epididymal mouse sperm [4]; diluted 25 fold): restored
capacitation-induced pY pattern (epididymal mouse sperm [4]; swim out sperm mixed with equal volume capacitation media): blocked
normalized pY (epididymal mouse sperm [4]; Fig. S1f, 1:1 capacitating media): 1.44 and 0.9739 and 0.9492 and 1.269 and 0.7377 and 0.8308 and 0.9909 and 0.9583
normalized pY (epididymal mouse sperm [4]; Fig. S1f, 1:5 capacitating media): 1.231 and 0.8896 and 0.8967 and 1.293 and 1.015 and 0.7938 and 1.073 and 0.7598
normalized pY (epididymal mouse sperm [4]; Fig. S1f, 1:10 capacitating media): 1.238 and 0.8061 and 0.8834 and 1.18 and 1.244 and 0.7753 and 1.106 and 0.8286
normalized pY (epididymal mouse sperm [4]; Fig. S1d, 1:1 capacitating media): 1.323 and 2.451 and 1.717 and 1.956
normalized pY (epididymal mouse sperm [4]; Fig. S1d, 1:5 capacitating media): 1.566 and 2.38 and 1.568 and 1.6103
normalized pY (epididymal mouse sperm [4]; Fig. S1d, 1:10 capacitating media): 1.95 and 2.076 and 2.342 and 1.601
normalized pY (epididymal mouse sperm [4]; Fig. S1d, 1:25 capacitating media): 1.653 and 2.642 and 2.388
normalized pY (epididymal mouse sperm [4]; Fig. S1d, 1:50 capacitating media): 1.946 and 2.557 and 2.122 and 1.827
normalized pY (epididymal mouse sperm [4]; Fig. S1d, 1:100 capacitating media): 1.953 and 2.689 and 1.737 and 1.751
Beat frequency, Basal (mouse sperm [5]; distal 10 μm of flagellum, 5 μM TDI-10229 or 10 nM TDI-11861, mean ± SEM): 10.4 ± 0.8 Hz
Beat frequency, + HCO3- (mouse sperm [5]; distal 10 μm, 25 mM NaHCO3, 5 μM TDI-10229 or 10 nM TDI-11861, mean ± SEM): 11.7 ± 1.8 Hz
cAMP, capacitation media (mouse sperm [6]; [14]): 0.708 pmol/10^6 sperm and 0.223 pmol/10^6 sperm and 0.8377 pmol/10^6 sperm and 0.328 pmol/10^6 sperm and 0.317 pmol/10^6 sperm and 0.164 pmol/10^6 sperm and 0.248 pmol/10^6 sperm and 0.209 pmol/10^6 sperm and 0.814 pmol/10^6 sperm and 0.028 pmol/10^6 sperm
cAMP, non-capacitation media (mouse sperm [6]; [14]): 0.791 pmol/10^6 sperm and 0.172 pmol/10^6 sperm and 0.69 pmol/10^6 sperm and 0.464 pmol/10^6 sperm and 0.354 pmol/10^6 sperm and 0.286 pmol/10^6 sperm and 0.57 pmol/10^6 sperm and 0.578 pmol/10^6 sperm and 1.32 pmol/10^6 sperm and 0.473 pmol/10^6 sperm
cAMP, capacitation media (mouse sperm [6]; [15]): 0.7514 pmol/10^6 sperm and 0.838 pmol/10^6 sperm and 0.907 pmol/10^6 sperm and 0.4366 pmol/10^6 sperm and 0.08556 pmol/10^6 sperm and 0.441 pmol/10^6 sperm and 0.751 pmol/10^6 sperm and 1.195 pmol/10^6 sperm
cAMP, non-capacitation media (mouse sperm [6]; [15]): 0.7446 pmol/10^6 sperm and 0.94 pmol/10^6 sperm and 1.147 pmol/10^6 sperm and 0.8426 pmol/10^6 sperm and 0.7363 pmol/10^6 sperm and 0.601 pmol/10^6 sperm and 0.752 pmol/10^6 sperm and 1.525 pmol/10^6 sperm
